Reference: the supplement of paper PMC10307832

Experiments:
Experiment in all cases: relative viability (nuclei count vs DMSO), 5 days (fraction); higher = more cells survive
[1] = compound: CN1C=C(C2=CC=CC=C21)/C=C\3/C4=C(C=CC=N4)NC3=O
Summary of the method: (§1)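 Five library-drug doses spaced by √10 were pinned onto vehicle-anchored 1536-well plates of lung cancer cell lines that had been kept overnight at 37 °C. Cells went 5 days without medium change, then were fixed, permeabilised and Hoechst-stained together, imaged at 4× and counted by MetaXpress. Viability is the ratio of treated-well to vehicle-well nuclei, taken as a median over plates. Plates required control CV below 25% and at least one doubling.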

Trametinib = compound: CC(=O)Nc1cccc(-n2c(=O)n(C3CC3)c(=O)c3c(Nc4ccc(I)cc4F)n(C)c(=O)c(C)c32)c1 [Trametinib]
Summary of the method: as §1

Trametinib + Lapatinib = compound: CC(=O)Nc1cccc(-n2c(=O)n(C3CC3)c(=O)c3c(Nc4ccc(I)cc4F)n(C)c(=O)c(C)c32)c1 [Trametinib] + CS(=O)(=O)CCNCc1ccc(-c2ccc3ncnc(Nc4ccc(OCc5cccc(F)c5)c(Cl)c4)c3c2)o1 [Lapatinib] (partner 2 µM)
Summary of the method: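 Cells from lung cancer lines were seeded into 1536-well plates and, one day later, dosed by pin tool. Treatments were either a single drug or a fixed dose of an anchor drug with five library-drug doses (not always all listed) in √10 steps. After 5 days, nuclei were stained in a one-step fixation (final 0.05% Triton X-100, 1% formaldehyde, 1 ug/ml Hoechst) and counted on 4× images, and relative viability is the treated-to-vehicle nuclei ratio, as the median of duplicate plates.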

Cell Line | relative viability ([1]; 0.02 µM) | relative viability ([1]; 0.06325 µM) | relative viability ([1]; 0.2 µM) | relative viability ([1]; 0.6325 µM) | relative viability ([1]; 2 µM) | relative viability (Trametinib; 0.0025 µM) | relative viability (Trametinib; 0.007906 µM) | relative viability (Trametinib; 0.02 µM, anchor plate) | relative viability (Trametinib; 0.025 µM) | relative viability (Trametinib; 0.07906 µM) | relative viability (Trametinib; 0.25 µM) | relative viability (Trametinib + Lapatinib; first compound 0.0025 µM) | relative viability (Trametinib + Lapatinib; first compound 0.007906 µM) | relative viability (Trametinib + Lapatinib; first compound 0.025 µM) | relative viability (Trametinib + Lapatinib; first compound 0.07906 µM) | relative viability (Trametinib + Lapatinib; first compound 0.25 µM)
HOP-62 | 0.992 | 1.03 | 0.805 | 1.02 | 0.938 | 1 | 0.943 | 0.4 | 0.778 | 0.444 | 0.209 | 0.949 | 0.903 | 0.387 | 0.39 | 0.104
LC-2-ad | 0.988 | 0.995 | 0.786 | 1 | 0.959 | 0.948 | 0.871 | 0.9 | 0.875 | 0.587 | 0.596 | 0.917 | 0.839 | 0.664 | 0.639 | 0.285
SW 900 | 0.969 | 0.79 | – | 1.02 | 0.987 | 0.713 | 0.811 | 0.808 | 0.751 | 0.771 | 0.19 | – | – | – | – | –
NCI-H322M | 0.854 | 0.93 | 0.787 | 0.973 | 0.956 | 0.81 | 0.717 | 0.519 | 0.603 | 0.556 | 0.432 | 0.59 | 0.469 | 0.443 | 0.388 | 0.455
SK-LU-1 | 0.793 | 0.928 | 0.984 | 0.945 | 1.08 | 1.03 | 0.88 | 0.475 | 0.641 | 0.548 | 0.412 | 0.791 | 0.721 | 0.538 | 0.426 | 0.304
NCI-H1734 | 0.971 | 0.939 | – | 1.05 | 1.06 | 0.959 | 0.92 | 0.717 | – | 0.911 | 0.41 | 1.02 | 1.01 | – | 1.03 | 0.517
HCC-44 | 0.902 | 0.906 | 0.87 | 0.991 | 0.935 | 0.966 | 0.982 | 1.05 | 1.02 | 0.82 | 0.495 | 0.996 | 0.868 | 0.929 | 0.701 | 0.493
NCI-H1703 | 0.943 | 0.827 | 0.8 | 0.9 | 0.776 | 0.778 | 0.906 | – | 0.825 | 0.875 | 0.684 | – | 1.09 | 0.887 | 0.96 | 0.859
NCI-H2170 | 0.854 | 0.983 | 0.833 | 0.839 | 1.07 | 0.96 | 0.955 | 0.94 | – | 0.929 | 0.923 | 0.311 | 0.258 | – | 0.261 | 0.246
NCI-H1395 | 0.818 | 0.894 | 0.632 | 0.878 | 0.785 | 1.03 | 0.83 | 1.03 | 0.69 | 0.67 | 0.523 | 1.05 | 0.869 | 0.834 | 0.907 | 0.406
NCI-H1355 | 0.933 | 0.888 | 0.899 | 0.692 | 0.824 | 0.921 | 0.796 | 0.419 | 0.542 | 0.653 | 0.583 | 0.838 | 0.767 | 0.369 | 0.532 | 0.4
NCI-H1650 | 1.03 | 0.923 | 0.685 | 0.794 | 0.914 | 0.902 | 0.898 | 0.583 | 0.827 | 0.599 | 0.264 | 0.899 | 0.714 | 0.567 | 0.568 | 0.151
IA-LM | 0.978 | 0.934 | 0.945 | 0.811 | 0.878 | 0.764 | 0.464 | – | 0.166 | 0.178 | 0.107 | 0.251 | 0.31 | 0.101 | 0.136 | 0.0905
NCI-H1666 | 1.09 | 0.938 | 0.99 | 0.924 | 0.967 | 0.972 | 0.931 | 0.864 | 0.892 | 0.724 | 0.617 | 0.354 | 0.414 | 0.405 | 0.387 | 0.265
HCC-78 | 0.81 | 0.905 | 0.731 | 0.803 | 0.889 | 0.933 | 0.735 | 0.805 | 0.678 | 0.573 | 0.526 | 0.827 | 0.533 | 0.988 | 0.299 | 0.469
H3255 | 1.04 | 0.951 | 0.834 | 0.978 | 0.903 | 0.973 | 0.879 | 0.631 | 0.787 | 0.742 | 0.563 | 0.246 | 0.188 | 0.269 | 0.201 | 0.236
NCI-H23 | 0.802 | 0.849 | 0.685 | 1.03 | 0.986 | 0.876 | 0.831 | 0.417 | 0.349 | 0.433 | 0.264 | 0.872 | 0.74 | 0.335 | 0.529 | 0.211
NCI-H1944 | 0.903 | 0.948 | – | 0.989 | 0.936 | 0.989 | 0.672 | 0.427 | 0.558 | 0.487 | 0.363 | 0.76 | 0.632 | 0.588 | 0.493 | 0.396
NCI-H1651 | 1.07 | 0.961 | 0.957 | 0.945 | 1.06 | 0.942 | 0.958 | 0.837 | 0.851 | 0.837 | 0.691 | 0.757 | 0.74 | 0.66 | 0.531 | 0.452
EBC-1 | 0.968 | 0.963 | 0.905 | 0.912 | 0.969 | 1 | 0.98 | – | 0.648 | 0.308 | 0.207 | 0.189 | 0.199 | 0.189 | 0.225 | 0.213
COR-L 105 | 0.803 | 0.838 | 0.837 | 1.05 | 1.02 | 0.835 | 0.786 | 0.446 | 0.426 | 0.386 | 0.426 | 0.37 | 0.413 | 0.332 | 0.381 | 0.326
